Experimental data taken from US9156818B2, “Hepatitis C virus inhibitors” (Enanta Pharmaceuticals, Inc., priority 2009, dated 2015).

Each molecule was assayed on HCV 1b genotype replicon (assay: HCV genotype-1b replicon assay (qRT-PCR or luciferase)). Conditions: Hepatitis C virus; HCV 1b replicon cell line (SGR 11-7 or Huh-luc/neo-ET); qRT-PCR or luciferase readout; read-out: Genotype-1b replicon EC50 Range.
Type: cell-based
Excerpt: HCV replicon cell lines (kindly provided by R. Bartenschlager) isolated from colonies as described by Lohman et. al. (Lohman et al. (1999) Science 285: 110-113, expressly incorporated by reference in its entirety) and used for all experiments. The HCV replicon has the nucleic acid sequence set forth in EMBL Accession No.: AJ242651, the coding sequence of which is from nucleotides 1801 to 8406.
The coding sequence of the published HCV replicon was synthesized and subsequently assembled in a modified plasmid pBR322 (Promega, Madison, Wis.) using standard molecular biology techniques. One replicon cell line (“SGR 11-7”) stably expresses HCV replicon RNA which consists of (i) the HCV 5′UTR fused to the first 12 amino acids of the capsid protein, (ii) the neomycin phosphotransferase gene (neo), (iii) the IRES from encephalomyocarditis virus (EMCV), and (iv) HCV NS2 to NS5B genes and the HCV 3′UTR. Another replicon cell line (“Huh-luc/neo-ET”) described by Vrolijk et. al. (Vrolijk et. al. (2003) Journal of Virological Methods 110:201-209, expressly incorporated by reference in its entirety) stably expresses HCV replicon RNA which consists of (i) the HCV 5′UTR fused to the first 12 amino acids of the capsid protein, (ii) the firefly luciferase reporter gene, (iii) the ubiquitin gene, (iv) the neomycin phosphotransferase gene (neo), (v) the IRES from encephalomyocarditis virus (EMCV), and (vi) HCV NS3 to NS5B genes that harbor cell culture adaptive mutations (E1202G, T12801, K1846T) and the HCV 3′UTR.
These cell lines were maintained at 37° C., 5% CO2, 100% relative humidity in DMEM (Cat#11965-084, Invitrogen), with 10% fetal calf serum (“FCS”, Invitrogen), 1% non-essential amino acids (Invitrogen), 1% of Glutamax (Invitrogen), 1% of 100× penicillin/streptomycin (Cat#15140-122, Invitrogen) and Geneticin (Cat#10131-027, Invitrogen) at 0.75 mg/ml or 0.5 mg/ml for 11-7 and Huh-luc/neo-ET cells, respectively.
EC50 values of single agent compounds and combinations were determined by HCV RNA detection using quantitative RT-PCR, according to the manufacturer's instructions, with a TAQMAN® One-Step RT-PCR Master Mix Reagents Kit (Cat# AB 4309169, Applied Biosystems) on an ABI Model 7500 thermocycler. The TaqMan primers used for detecting and quantifying HCV RNA were obtained from Integrated DNA Technologies. HCV RNA was normalized to GAPDH RNA levels in drug-treated cells, which was detected and quantified using the Human GAPDH Endogenous Control Mix (Applied Biosystems, AB 4310884E). Total cellular RNA was purified from 96-well plates using the RNAqueous 96 kit (Ambion, Cat# AM1812). Chemical agent cytotoxicity was evaluated using an MTS assay according to the manufacturer's directions (Promega).
Since clinical drug resistance often develops in viral infections following single agent therapies, there is a need to assess the additive, antagonistic, or synergistic properties of combination therapies. We use the HCV replicon system to assess the potential use of the compound of the present invention or in combination therapies with Interferon alpha, cyclosporine analogs and inhibitors targeting other HCV proteins. The acute effects of a single or combinations of drugs are studied in the “Huh-luc/neo-ET” replicon with each chemical agent titrated in an X or Y direction in a 6 point two-fold dilution curve centered around the EC50 of each drug. Briefly, replicon cells are seeded at 7,000 cells per well in 90 ul DMEM (without phenol red, Invitrogen Cat.#31053-036) per well with 10% FCS, 1% non-essential amino acids, 1% of Glutamax and 1% of 1 OOX penicillin/streptomycin and incubated overnight at 37° C., 5% CO2, 100% relative humidity. […]
`COC(=O)N[C@H](C(=O)N1CCC[C@H]1c1ncc(-c2ccc(-c3ccc(-c4cnc([C@@H]5[C@H]6CC[C@H](C6)N5C(=O)[C@@H](NC(=O)OC)C(C)C)[nH]4)cc3)cc2)[nH]1)C(C)C` [Example 83] showed an EC50 of less than 1 nM. Work on `COC(=O)N[C@H](C(=O)N1CCC[C@H]1c1ncc(-c2ccc(-c3ccc(-c4cnc([C@H]5[C@@H]6CC[C@@H](C6)N5C(=O)[C@@H](NC(=O)OC)C(C)C)[nH]4)cc3)cc2)[nH]1)C(C)C` [Example 246] yielded an EC50 of less than 1 nM. Work on `COC(=O)N[C@H](C(=O)N1CCC[C@H]1c1nc2cc(C#Cc3ccc(-c4cnc([C@@H]5[C@H]6CC[C@H](C6)N5C(=O)[C@@H](NC(=O)OC)C(C)C)[nH]4)cc3)ccc2[nH]1)C(C)C` [Example 319] yielded an EC50 of less than 1 nM. `COC(=O)N[C@H](C(=O)N1CCC[C@H]1c1nc(-c2ccc(C#Cc3ccc4[nH]c([C@@H]5[C@H]6CC[C@H](C6)N5C(=O)[C@@H](NC(=O)OC)C(C)C)nc4c3)cc2)c[nH]1)C(C)C` [Example 338] gave an EC50 of less than 1 nM. `COC(=O)N[C@H](C(=O)N1CCC[C@H]1c1nc(-c2ccc(C#Cc3ccc4[nH]c([C@@H]5C6CCC(CC6)N5C(=O)[C@@H](NC(=O)OC)C(C)C)nc4c3)cc2)c[nH]1)C(C)C` [Example 344] showed an EC50 of less than 1 nM. In the case of `COC(=O)N[C@H](C(=O)N1[C@@H]2CC[C@@H](C2)[C@H]1c1ncc(-c2ccc(C#Cc3ccc4[nH]c([C@@H]5[C@H]6CC[C@H](C6)N5C(=O)[C@@H](NC(=O)OC)C(C)C)nc4c3)cc2)[nH]1)C(C)C` [Example 346], the EC50 is reported as less than 1 nM. With `COC(=O)N[C@H](C(=O)N1CCC[C@H]1c1nc(-c2ccc(-c3ccc(-c4ccc5[nH]c([C@@H]6[C@H]7CC[C@H](C7)N6C(=O)[C@@H](NC(=O)OC)C(C)C)nc5c4)cc3)cc2)c[nH]1)C(C)C` [Example 348] the EC50 was less than 1 nM. For `COC(=O)N[C@H](C(=O)N1CCC[C@H]1c1nc(-c2ccc3cc(-c4ccc5[nH]c([C@@H]6[C@H]7CC[C@H](C7)N6C(=O)[C@@H](NC(=O)OC)C(C)C)nc5c4)ccc3c2)c[nH]1)C(C)C` [Example 350], the EC50 was less than 1 nM.
